Assay results from US9603852B2, “Treatment of obesity and pulmonary arterial hypertension” (ALBERT EINSTEIN COLLEGE OF MEDICINE, INC., priority 2013, dated 2017).

Columns and labels:
Sprague-Dawley rats [1] = test: Tolerability with twice daily injections in the naive rodent; type: in vivo; settings: 7 days
Experimental: In the first arm of the project, the tolerability of compounds was assessed with twice daily (b.i.d) injections in the naive rodent. Following one week of acclimatization to the UNM housing environments, rats at this time weighing approximately 200-225 g were randomly assigned to either receive a 50 mg/kg injection b.i.d. of Compound 146 (n=4) or an equivalent weight-based volume of vehicle (Cremophor-NMP) b.i.d. (n=4). Rats received test article or saline for a total of 7 consecutive days. Blood draws were conducted immediately before the 2nd day of injections, before the 4th day, before the 6th day, and at sacrifice. Body weights were obtained at the same times as the blood draws. On the 7th day, blood from both cohorts was collected via cardiac puncture while under anesthesia. Lungs, heart, liver and kidney were collected and snap frozen in liquid nitrogen for post-mortem bioassays.

Sprague-Dawley rats [2] = test: Rat monocrotaline (MCT) model of pulmonary arterial hypertension; type: in vivo; settings: for Deaths/Total N: 21 days
Experimental: Monocrotaline (MCT) (Sigma-Aldrich) was formulated by standardized procedures, by first dissolving in an acidic solution (HCl), diluting with distilled H2O, then raising the pH to physiological levels (7.35-7.45) with NaOH. MCT (60 mg/kg) or a volume-matched saline solution was injected intraperitoneally once at the beginning of the study. Body weights were collected on day 0, 5, 7, 11, 14, 18, and 21.
MCT and saline-injected rats (Day 1) were equally and randomly assigned to receive either vehicle (Cremophor-NMP), low dose Compound 146 or high dose Compound 146 via subcutaneous injections (Days 1-21). Injections were administered subcutaneously at 12 hour intervals throughout the study (actual range was 10-14 h).
After 21 days of twice daily subq injections of either vehicle or two concentrations of Compound 146, rats were anesthetized (1.5-2.5% isoflurane; […]), shaved and positioned in dorsal recumbence. Anesthesia was maintained at an appropriate depth, with a target heart rate of ˜350 bpm to ensure minimal cardio-depressant effects during collection of RVSP.
Upon absent deep pain reflex, a thoracotomy was performed to reveal the right ventricle and a fluid-filled catheter was inserted beyond the right ventricular free wall to permit recording of right ventricular hemodynamics (ADI Instruments). A digital trace of 10-30 seconds was obtained from which to derive right ventricular diastolic, mean, and systolic pressures, along with heart rate and related hemodynamic measures. Blood was then drawn via cardiac puncture and centrifuged to obtain EDTA plasma. Hearts were removed and the right ventricle dissected free from the septal wall. Each piece was weighed and reported as RV/LV+S. Tissues (plasma, heart, and lung) were excised and frozen in liquid nitrogen for later biochemical analysis. Additionally, kidneys and liver were snap frozen and stored for subsequent analysis.
Animals were examined twice per day (morning and evening) on each day of the study. Examinations focused on (1) identifying dead, weak, or moribund animals, and (2) documenting the onset and progression of any abnormal clinical signs, especially dermal lesions. Animals found dead were necropsied as soon as possible; for those subjects RV/LVS weight ratios were obtained, but no other parameters were collected.
All data were analyzed by a one-way ANOVA with Newman-Keuls post-hoc multiple comparison test. Probability values less than 0.05 were accepted as significant. Normality of distribution was assumed but for all data sets. All data were analyzed with GraphPad Prism v5.02.

C57BL6/J mice [3] = test: Glucose tolerance test in HFD-fed mice; type: in vivo; settings: mice on HFD, 0.2 mM in drinking water for 67 days; glucose 2 g/kg i.p. after 12 h fast
Experimental: Glucose intolerance is often associated with obesity and HFD causes glucose intolerance. Mice were fasted for 12 hours. Glucose was injected intraperitoneally (20% glucose in saline, 2 g/kg body weight), and plasma glucose levels were measured at various time points by tail cut.

C57BL6/J mice [4] = test: High fat diet induced body weight gain, food and water intake in mice; type: in vivo; settings: WT C57BL6 mice on HFD, 0.2 mM in drinking water
Experimental: CD and HFD were purchased from Purina LabDiet (Framingham, Mass.), and Research Diets (New Brunswick, N.J.), respectively. PGT global knockout (KO) mice were fed with HFD at 5-6 weeks of age. Simultaneously, WT-CD, WT-HFD, and PGTKO-HFD mice were treated with vehicle (0.4% DMSO+0.4% cremophore) or 0.2 mM Compound 146 from Table 1. To prepare Compound 146 solution, Compound 146 was dissolved in 100% DMSO at a concentration of 50 mM. Two mL of either DMSO or 50 mM Compound 146 were transferred into 500 mL drinking water; 2 mL cremophore were added into the mixture. The mixture was homogenous. Mice were housed individually and fed with CD or HFD, and water (with or without Compound 146) ad libitum. Food and water intakes and body weight were recorded every other day.

rat PGT = target: T1, rat PGT (Rattus norvegicus, UniProt Q00910); settings: cited from earlier work
T1 construct: expressed in transfected cells

## O=C(NCCOCCOCCNc1nc(Nc2ccc(C(=O)NCc3ccc(F)cc3)cc2)nc(Nc2ccc(O)c(C(=O)O)c2)n1)c1ccccc1 [Compound 146]
Sprague-Dawley rats [1]; 2 rats of the 50 mg/kg b.i.d. group that did not gain weight
  cutaneous lesion diameter close to injection sites: 1.5-2.0 cm
Sprague-Dawley rats [1]; naive rats, 50 mg/kg b.i.d. injection in NMP and Cremophor
  body weight growth (tolerability): heterogeneous failure to thrive
Sprague-Dawley rats [2]; 15 or 50 mg/kg b.i.d.
  RV pressures, MCT+Vehicle versus MCT+Compound 146 by ANOVA: not statistically different
  RV pulse pressure, MCT+Vehicle versus MCT+Compound 146 by ANOVA: statistically different
Sprague-Dawley rats [2]; MCT rats
  Net RV weight increase by MCT: effect blunted
Sprague-Dawley rats [2]; MCT rats, 15 mg/kg b.i.d. s.c.
  Deaths/Total N: 0/8
Sprague-Dawley rats [2]; MCT rats, 50 mg/kg b.i.d. s.c.
  Deaths/Total N: 0/8
Sprague-Dawley rats [2]; MCT rats, both doses
  MCT induced increase in total lung weight: inhibited
  RV hypertrophic response: significant inhibition
Sprague-Dawley rats [2]; MCT rats, high dose 50 mg/kg b.i.d.
  RV/LVS ratio (Fulton Index), mean: 0.47
Sprague-Dawley rats [2]; MCT rats, lobe dried for 5 days
  right lobe dry weight / increase in structural components of the lung: abrogated this remodeling
Sprague-Dawley rats [2]; MCT rats, low dose 15 mg/kg b.i.d.
  RV/LVS ratio (Fulton Index), mean: 0.41
Sprague-Dawley rats [2]; Saline-injected rats, 50 mg/kg b.i.d. s.c.
  Deaths/Total N: 0/5
Sprague-Dawley rats [2]; either dose (15 or 50 mg/kg b.i.d.)
  RV pulse pressure, MCT effect compared to control rats: MCT induced no significant effect compared to control rats
Sprague-Dawley rats [2]; either dose (15 or 50 mg/kg b.i.d.), ANOVA
  RV systolic and mean pressures, MCT effect compared to control rats: MCT induced no significant effect compared to control rats
Sprague-Dawley rats [2]; groups receiving any dose
  lethalities: no lethalities
Sprague-Dawley rats [2]; one-tailed unpaired Student's t-test, P=0.046 low dose and 0.002 high dose
  RV pressures, MCT-vehicle compared to MCT-Compound 146, restricted analysis: significant reduction
C57BL6/J mice [3]
  HFD induced glucose intolerance (glucose tolerance test): improved HFD induced glucose intolerance
C57BL6/J mice [4]
  HFD induced body weight gain: blunted HFD induced weight gain
Rat PGT; 0.01 μM compound, second part of Table 1
  Inh (% of Ctl) 0.01 μM: 28.5 % of Ctl
Rat PGT; 0.05 μM compound, second part of Table 1
  Inh (% of Ctl) 0.05 μM: 59.8 % of Ctl
Rat PGT; 0.1 μM compound, second part of Table 1 (Cpd 130-151)
  Inh (% of Ctl) 0.1 μM: 70.4 % of Ctl
